Experimental data: patent publication US10519145B2, “Pyrazole-oxazolidinone compound for anti-hepatitis B virus” (Shanghai Zhimeng Biopharma Co., Ltd., priority 2016, dated 2019)

The compounds below were run on HBV (HepG2.2.15 cells) (assay: Anti-HBV activity experiment in vitro (HepG2.2.15, HBV DNA in supernatant, qPCR)). Details: Hepatitis B virus, HBV DNA in supernatant by qPCR, eighth day.
Assay type: cell-based
Description: Compound Dilution: initial concentrations of all compounds used in the anti-HBV activity experiments in vitro were 1 μM, 3-fold diluted into 8 concentrations; initial concentrations of all compounds used in the cytotoxicity assay were 100 μM, 3-fold diluted into 8 concentrations; and the mother liquor of the compound was diluted with DMSO.
Anti-HBV Activity Experiment In Vitro: HepG2.2.15 cells (4×10^4 cells/well) were seeded in 96-well plates and cultured overnight at 37° C. in 5% CO2. The next day, fresh cultures containing compounds in different concentrations were added into the culture wells. On the fifth day, the old culture medium in the culture wells was aspirated and removed. Fresh medium containing compounds in different concentrations was added. On the eighth day, supernatants in the culture wells were collected and used to extract HBV DNA in the supernatant. qPCR assay was used to detect HBV DNA content in the HepG2.2.15 supernatant.
The data analysis and the percentage of inhibition calculation: the percentage of inhibition was calculated by using the following formula: Inhibition %=[(HBV amount in DMSO control−HBV amount in sample)/HBV amount in DMSO control]×100%.
O=C1COC(c2cn(-c3ccc(Br)cc3)nc2-c2ccc(F)cc2)N1CCc1cc2[nH]c(=O)[nH]c2cc1F (racemic) [example 8 racemate, 2-(1-(4-bromophenyl)-3-(4-fluorophenyl)11/-pyrazol-4-yl)-3-(2-(6-fluoro-2-carbonyl-2,3-dihydro-1H-benzo[d]imidazol-5-yl)ethyl)oxazoline-4-one] showed an EC50 of 35.5 nM. Compound O=C1COC(c2cn(-c3ccc(Br)cc3)nc2-c2ccoc2)N1CCc1ccc2[nH]c(=O)[nH]c2c1 (racemic) [example 21 racemate, 2-(1-(4-bromophenyl)-3-(furan-3-yl)-1H-pyrazol-4-yl)-3-(2-(2-oxo-2,3-dihydro-1H-benzo[d]imidazol-5-yl)ethyl)oxazolidin-4-one] has an EC50 of 30.6 nM. Nc1ccc(CCN2C(=O)COC2c2cn(-c3ccc(Br)cc3)nc2-c2ccc(F)cc2)cc1 (centres unmarked) [example 1 intermediate] showed an EC50 of 11.8 nM. With O=C1COC(c2cn(-c3ccc(Br)cc3)nc2-c2ccc(F)cc2)N1CCc1ccc2[nH]cnc2c1 (centres unmarked) [example 1, 3-(2-(1H-benzo[d]imidazol-5-yl)ethyl)-2-(1-(4-bromophenyl)-3-(4-fluorophenyl)-1 H-pyrazol-4-yl)oxazoline-4-one] the EC50 was 50.3 nM. With O=C1COC(c2cn(-c3ccc(Br)cc3)nc2-c2ccc(F)cc2)N1CCc1ccc2[nH]nnc2c1 (centres unmarked) [example 2, 3-(2-(1H-benzo[d][1,2,3]triazol-5-yl)ethyl)-2-(1-(4-bromophenyl)-3-(4-fluoropheny 1)-1H-pyrazol-4-yl)oxazoline-4-one] the EC50 was 68.8 nM. For O=C1CO[C@@H](c2cn(-c3ccc(Br)cc3)nc2-c2ccc(F)cc2)N1CCc1ccc2[nH]c(=O)[nH]c2c1 [example 3 S isomer, (S)-3-(2-(2-oxo-2,3-dihydro-1H-benzo[d]imidazol-5-yl)ethyl)-2-(1-(4-bromophenyl)-3-(4-fluorophenyl)-1H-pyrazol-4-yl)-oxazolidin-4-one], the EC50 was > 1000 nM. In the case of N=c1[nH]c2ccc(CCN3C(=O)COC3c3cn(-c4ccc(Br)cc4)nc3-c3ccc(F)cc3)cc2[nH]1 (centres unmarked) [example 4, 3-(2-(2-amino-1H-benzo[d]imidazol-6-yl)ethyl)-2-(1-(4-bromophenyl)-3-(4-fluorophenyl)-1H-pyrazol-4-yl)oxazoline-4-one], the EC50 is reported as > 1000 nM. O=C1COC(c2cn(-c3ccc(Br)cc3)nc2-c2ccc(F)cc2)N1CCc1ccc2[nH]c(=S)[nH]c2c1 (centres unmarked) [example 5, 2-(1-(4-bromophenyl)-3-(4-fluorophenyl)-1H-pyrazol-4-yl)-3-(2-(2,3-dihydro-2-thio-1H-benzo[d]imidazol-5-yl)ethyl)oxazoline-4-one] gave an EC50 of 45.7 nM. Compound O=C1COC(c2cn(-c3ccc(Br)cc3)nc2-c2ccc(F)cc2)N1CCc1cc2nc[nH]c2cc1F (centres unmarked) [example 7, 2-(1-(4-bromophenyl)-3-(4-fluorophenyl)1H-pyrazol-4-yl)-3-(2-(5-fluoro-1H-benzo[d]imidazol-6-yl)ethyl)oxazoline-4-one] has an EC50 of 67.5 nM. O=C1CO[C@H](c2cn(-c3ccc(Br)cc3)nc2-c2ccc(F)cc2)N1CCc1cc2[nH]c(=O)[nH]c2cc1F [example 8 R isomer, (R)-2-(1-(4-bromophenyl)-3-(4-fluorophenyl)1H-pyrazol-4-yl)-3-(2-(6-fluoro-2-carbonyl-2,3-dihydro-1H-benzo[d]imidazol-5-yl)ethyl)oxazoline-4-one] was tested, and the EC50 was 15.5 nM. For O=C1CO[C@@H](c2cn(-c3ccc(Br)cc3)nc2-c2ccc(F)cc2)N1CCc1cc2[nH]c(=O)[nH]c2cc1F [example 8 S isomer, (S)-2-(1-(4-bromophenyl)-3-(4-fluorophenyl)1H-pyrazol-4-yl)-3-(2-(6-fluoro-2-carbonyl-2,3-dihydro-1H-benzo[d]imidazol-5-yl)ethyl)oxazoline-4-one], the EC50 was > 1000 nM. O=C1COC(c2cn(-c3ccc(Br)cc3)nc2-c2ccc(F)cc2)N1CCc1cc2nn[nH]c2cc1F (centres unmarked) [example 9, 3-(2-(5-fluoro-1H-benzo[d][1,2,3]triazol-6-yl)ethyl)-2-(1-(4-bromophenyl)-3-(4-fluorophenyl)-1H-pyrazol-4-yl)oxazoline-4-one] showed an EC50 of 234 nM. Compound O=C1COC(c2cn(-c3ccc(Br)cc3)nc2-c2ccc(F)cc2)N1CCc1c(F)cc2[nH]cnc2c1F (centres unmarked) [example 10, 2-(1-(4-bromophenyl)-3-(4-fluorophenyl)1H-pyrazol-4-yl)-3-(2-(5,7-difluoro-1H-benzo[d]imidazol-6-yl)ethyl)oxazoline-4-one] has an EC50 of 134 nM. Compound O=C1COC(c2cn(-c3ccc(Br)cc3)nc2-c2ccc(F)cc2)N1CCc1c(F)cc2[nH]c(=O)[nH]c2c1F (centres unmarked) [example 11, 2-(1-(4-bromophenyl)-3-(4-fluorophenyl)1H-pyrazol-4-yl)-3-(2-(4,6-difluoro-2-carbonyl-2,3-dihydro-1H-benzo[d]imidazol-5-yl)ethyl)oxazoline-4-one] has an EC50 of 101 nM. O=C1COC(c2cn(-c3ccc(Br)cc3)nc2-c2ccc(F)cc2)N1CCc1c(F)cc2[nH]nnc2c1F (centres unmarked) [example 12, 2-(1-(4-bromophcnyl)-3-(4-fluorophenyl)-1H-pyrazol-4-yl)-3-(2-(5,7-difluoro-1H hydrogen-benzor[d][1,2,3]triazol-6-yl)ethyl)oxazoline-4-one] showed an EC50 of 223 nM. Compound O=C1Cc2cc(CCN3C(=O)CO[C@@H]3c3cn(-c4ccc(Br)cc4)nc3-c3ccc(F)cc3)ccc2N1 [example 13 R isomer] has an EC50 of 14.4 nM. In the case of O=C1Cc2cc(CCN3C(=O)CO[C@H]3c3cn(-c4ccc(Br)cc4)nc3-c3ccc(F)cc3)ccc2N1 [example 13 S isomer], the EC50 is reported as > 1000 nM. For O=C1COC(c2cn(-c3ccc(Br)cc3)nc2-c2ccc(F)cc2)N1CCc1ccc2c(c1)C(F)(F)C(=O)N2 (centres unmarked) [example 14], the EC50 was > 1000 nM. O=C1CO[C@H](c2cn(-c3ccc(F)cc3)nc2-c2ccc(F)cc2)N1CCc1ccc2[nH]c(=O)[nH]c2c1 [example 15 R isomer, (R)-3-(2-(2-oxo-2,3-dihydro-1H-benzo[d]imidazol-5-yl)ethyl)-2-(1-(4-fluorophenyl)-3-(4-fluorophenyl)-1H-pyrazol-4-yl)-oxazolidin-4-one] was tested, and the EC50 was 44.5 nM. For O=C1CO[C@@H](c2cn(-c3ccc(F)cc3)nc2-c2ccc(F)cc2)N1CCc1ccc2[nH]c(=O)[nH]c2c1 [example 15 S isomer, (S)-3-(2-(2-oxo-2,3-dihydro-1H-benzo[d]imidazol-5-yl)ethyl)-2-(1-(4-fluorophenyl)-3-(4-fluorophenyl)-1H-pyrazol-4-yl)-oxazolidin-4-one], the EC50 was > 1000 nM. O=C1COC(c2cn(-c3ccc(Br)cc3)nc2-c2ccc(F)cc2)N1CCc1ccc2[nH]c(=O)oc2c1 (centres unmarked) [example 16, 6-(2-{2-[1-(4-bromo-phenyl)-3-(4-fluoro-phenyl)-1-hydro-pyrazol-4-yl]-4-carbonyl-oxazoline-3-yl}-ethyl)-3-hydro-2-carbonyl-benzoxazole] gave an EC50 of 80.3 nM. O=C1COC(c2cn(-c3ccc(Br)cc3)nc2-c2ccc(F)cc2)N1CCc1ccc2oc(=O)[nH]c2c1 (centres unmarked) [example 17] showed an EC50 of 150 nM. O=C1COC(c2cn(-c3ccc(Br)cc3)nc2-c2ccc(F)cc2)N1CCc1ccc2[nH]c(=O)sc2c1 (centres unmarked) [example 18, 2-(1-(4-bromophenyl)-3-(4-fluorophenyl)-1H-pyrazol-4-yl)-3-(2-(2-carbonyl-2,3-dihydrobenzo[d]thiazol-6-yl)ethyl)-4-carbonyl-oxazoline] gave an EC50 of 60.4 nM. O=C1COC(c2cn(-c3ccc(Br)cc3)nc2-c2ccc(F)cc2)N1CCc1ccc2sc(=O)[nH]c2c1 (centres unmarked) [example 19, 2-(1-(4-bromophenyl)-3-(4-fluorophenyl)-1H-pyrazol-4-yl)-3-(2-(2-oxo-2,3-dihydrobenzo[d]thiazol-5-yl)ethyl)oxazoline-4-one] showed an EC50 of 162 nM. With O=C1COC(c2cn(-c3ccc(Br)cc3)nc2-c2ccsc2)N1CCc1ccc2[nH]c(=O)[nH]c2c1 (centres unmarked) [example 20, 2-(1-(4-bromophenyl)-3-(thiophene-3-yl)-1H-pyrazol-4-yl)-3-(2-(2-oxo-2,3-dihydro-1H-benzo[d]imidazol-5-yl)ethyl)oxazolidin-4-one] the EC50 was 20.9 nM. Work on O=C1CO[C@H](c2cn(-c3ccc(Br)cc3)nc2-c2ccoc2)N1CCc1ccc2[nH]c(=O)[nH]c2c1 [example 21 R isomer, (R)-2-(1-(4-bromophenyl)-3-(furan-3-yl)-1H-pyrazol-4-yl)-3-(2-(2-oxo-2,3-dihydro-1H-benzo[d]imidazol-5-yl)ethyl)oxazolidin-4-one] yielded an EC50 of 11 nM. O=C1CO[C@@H](c2cn(-c3ccc(Br)cc3)nc2-c2ccoc2)N1CCc1ccc2[nH]c(=O)[nH]c2c1 [example 21 S isomer, (S)-2-(1-(4-bromophenyl)-3-(furan-3-yl)-1H-pyrazol-4-yl)-3-(2-(2-oxo-2,3-dihydro-1H-benzo[d]imidazol-5-yl)ethyl)oxazolidin-4-one] was tested, and the EC50 was > 1000 nM. For O=C1COC(c2cn(-c3ccc(Br)cc3)nc2-c2ccco2)N1CCc1ccc2[nH]c(=O)[nH]c2c1 (centres unmarked) [example 22, 2-(1-(4-bromophenyl)-3-(furan-2-yl)-1H-pyrazol-4-yl)-3-(2-(2-oxo-2,3-dihydro-1H-benzo[d]imidazol-5-yl)ethyl)oxazolidin-4-one], the EC50 was 85.3 nM. With COC(=O)Nc1nc2cc(CCN3C(=O)COC3c3cn(-c4ccc(Br)cc4)nc3-c3ccc(F)cc3)ccc2[nH]1 (centres unmarked) [example 23, Methyl (5-(2-(2-(I -(4-bromophenyl)-3-(4-fluorophenyl)-1H-pyrazol-4-yl)oxazoline-4-one-3-yl)ethyl)-1H-benzo[d]imidazol-2-yl)carbamate] the EC50 was 127 nM.
